Key:
[1] = target: T1, human macrophage elastase (HME/hMMP-12) (Homo sapiens, UniProt P39900); test: In vitro HME inhibition test (standard or high-sensitivity); type: biochemical; conditions: in some cases mean values, rounded to two significant figures
T1 construct: purchased R&D Systems 917-MP
Summary of the method: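 Autoactivated HME (0.5 nM; high-sensitivity format 0.05 nM, ~16 h) with 5 μM quenched Mca-PLGLEEA-Dap(Dnp)-NH2 substrate in HEPES pH 7.4, NaCl, CaCl2, ZnCl2, EDTA, Brij buffer, 2 h at 37° C. Fluorescence at ex 323/em 393 nm; IC50 from signal versus concentration.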

[2] = test system: rat hepatocytes; test: Hepatocyte assay for determination of metabolic stability; type: in vitro ADME; conditions: after incubation with rat hepatocytes
Protocol: The metabolic stability of test compounds towards hepatocytes is determined by incubating the compounds at low concentrations (preferably below or around 1 μM) and at low cell counts (preferably at 1*10^6 cells/ml) in order to ensure maximum linearity of kinetic conditions in the experiment. Seven samples from the incubation solution are taken for the LC-MS analysis within a fixed time pattern, in order to determine the half-life (i.e. the degradation) of the particular compound. This half-life is used to calculate various “Clearance” parameters (CL) and “Fmax” values (see below).
The CL and Fmax values are a measure of the phase 1 and phase 2 metabolism of the compounds in the hepatocytes. In order to minimize the influence of the organic solvent on the enzymes in the incubation batches, the concentration thereof is generally limited to 1% (acetonitrile) or 0.1% (DMSO).
For all species and breeds, a hepatocyte cell count in the liver of 1.1*10^8 cells/g of liver is expected.

[3] = target: T2, MMP-16 (Homo sapiens, UniProt P51512); test: In vitro MMP-16 inhibition test; type: biochemical; conditions: human MMP-16
T2 construct: purchased R&D Systems 1785-MP
Source text: (§1) The MMP-mediated amidolytic cleavage of a suitable peptide substrate leads to an increase in fluorescent light here too. The signal intensity of the fluorescent light is directly proportional to the enzyme activity. The active concentration of a test compound at which half the enzyme is inhibited (50% signal intensity of the fluorescent light) is reported as the IC50 value.
Recombinant MMP-16 (R&D Systems, 1785-MP) is enzymatically activated in accordance with the manufacturer's instructions using recombinant furin (R&D Systems, 1503-SE). 1 μl of the test compound to be analysed (as a solution in DMSO, suitable concentrations e.g. 1 nM to 30 μM) is pipetted into 24 μl of activated enzyme (final concentration e.g. 1 nM) in reaction buffer (50 mM Tris/HCl pH 7.5, 10 mM CaCl2, 150 mM NaCl, 0.05% Brij®-35) in a white 384-hole microtiter plate (MTP). The enzymatic reaction is started by adding the intramolecularly quenched Mca-Lys-Pro-Leu-Gly-Leu-Dpa(Dnp)-Ala-Arg-NH2 substrate (final concentration e.g. 5 μM; R&D Systems, ES-010), so as to result in a total test volume of 50 μl. The course of the MMP-16 reaction is measured by measuring the fluorescence intensity (excitation 320 nm, emission 410 nm) over a suitable period of time (e.g. over 120 min at a temperature of 32° C.).

[4] = target: T3, MMP-13 (Homo sapiens, UniProt P45452); test: In vitro MMP-13 inhibition test; type: biochemical; conditions: human MMP-13
T3 construct: purchased R&D Systems 511-MP
Source text: as §1
Recombinant MMP-13 (R&D Systems, 511-MP) is chemically activated in accordance with the manufacturer's instructions using APMA. 1 μl of the test compound to be analysed (as a solution in DMSO, suitable concentrations e.g. 1 nM to 30 μM) is pipetted into 24 μl of activated enzyme (final concentration e.g. 0.1 nM) in reaction buffer (50 mM Tris/HCl pH 7.5, 10 mM CaCl2, 150 mM NaCl, 0.05% Brij®-35) in a white 384-hole microtiter plate (MTP). The enzymatic reaction is started by adding the intramolecularly quenched Mca-Pro-Leu-Gly-Leu-Dpa(Dnp)-Ala-Arg-NH2 substrate (final concentration e.g. 10 μM; R&D Systems, ES-001), so as to result in a total test volume of 50 μl. The course of the MMP-13 reaction is measured by measuring the fluorescence intensity (excitation 320 nm, emission 410 nm) over a suitable period of time (e.g. over 120 min at a temperature of 32° C.).

T2 sequence (P51512 120-564 limits assumed): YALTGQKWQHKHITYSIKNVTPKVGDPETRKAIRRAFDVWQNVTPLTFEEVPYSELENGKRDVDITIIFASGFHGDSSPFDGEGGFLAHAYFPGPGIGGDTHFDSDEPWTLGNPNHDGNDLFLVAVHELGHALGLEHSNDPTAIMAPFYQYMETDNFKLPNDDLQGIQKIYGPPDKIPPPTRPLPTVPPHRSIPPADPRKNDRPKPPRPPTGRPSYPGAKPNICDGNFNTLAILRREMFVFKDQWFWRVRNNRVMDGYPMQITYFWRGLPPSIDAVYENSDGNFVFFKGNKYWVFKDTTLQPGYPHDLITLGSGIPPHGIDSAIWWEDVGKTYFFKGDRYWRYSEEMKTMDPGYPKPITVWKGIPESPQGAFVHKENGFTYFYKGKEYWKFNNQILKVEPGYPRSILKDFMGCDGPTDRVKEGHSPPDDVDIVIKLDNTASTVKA
T1 sequence (P39900 106-470): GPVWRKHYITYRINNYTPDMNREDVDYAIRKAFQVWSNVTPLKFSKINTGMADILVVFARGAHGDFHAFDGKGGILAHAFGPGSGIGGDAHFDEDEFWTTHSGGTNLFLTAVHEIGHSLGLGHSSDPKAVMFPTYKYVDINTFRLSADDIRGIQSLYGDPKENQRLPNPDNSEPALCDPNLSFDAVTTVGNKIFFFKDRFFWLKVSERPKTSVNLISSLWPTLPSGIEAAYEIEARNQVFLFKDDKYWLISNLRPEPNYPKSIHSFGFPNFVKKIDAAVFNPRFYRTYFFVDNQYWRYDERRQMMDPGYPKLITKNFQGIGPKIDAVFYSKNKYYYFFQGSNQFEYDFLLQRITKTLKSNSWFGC

IC50 [1] [nM]	CLblood (calculated blood clearance, well-stirred) [2] [mL/min/kg]	Fmax (maximum possible bioavailability after oral administration, well-stirred) [2] [%]	IC50 [3] [nM]	IC50 [4] [nM]	SMILES
2.1	27	61.4	> 40000	13000	O=C(CC(CCn1nnc2ccccc2c1=O)C(=O)O)c1cc2cc(OCC3CCOCC3)ccc2o1 (racemic) [Example 5, (+/−)-4-Oxo-2-[2-(4-oxo-1,2,3-benzotriazin-3(4H)-yl)ethyl]-4-[5-(tetrahydro-2H-pyran-4-ylmethoxy)-1-benzofur-2-yl]butanoic acid]
2.8	23.2	66.9	> 40000	4700	O=C(CC(CCn1nnc2ccccc2c1=O)C(=O)O)c1cc2ccc(OCCc3ccccc3)cc2o1 (racemic) [Example 73, (+/−)-4-Oxo-2-[2-(4-oxo-1,2,3-benzotriazin-3(4H)-yl)ethyl]-4-[6-(2-phenylethoxy)-1-benzofur-2-yl]butanoic acid]
0.63	12.2	82.7	30000	970	O=C(CC(CCn1nnc2ccccc2c1=O)C(=O)O)c1noc2cc(OCc3ccc(F)cc3)ccc12 (racemic) [Example 136, (+/−)-4-{6-[(4-Fluorobenzyl)oxy]-1,2-benzoxazol-3-yl}-4-oxo-2-[2-(4-oxo-1,2,3-benzotriazin-3(4H)-yl)ethyl]butanoic acid]
0.28	24.8	64.5	24000	330	CCCCCOc1ccc2c(C(=O)CC(CCn3nnc4ccccc4c3=O)C(=O)O)noc2c1 (racemic) [Example 140, (+/−)-4-Oxo-2-[2-(4-oxo-1,2,3-benzotriazin-3(4H)-yl)ethyl]-4-[6-(pentyloxy)-1,2-benzoxazol-3-yl]butanoic acid]
1.4	29	58.6	15000	1600	O=C(CC(CCn1nnc2ccccc2c1=O)C(=O)O)c1noc2cc(OCCc3ccccc3)ccc12 (racemic) [Example 144, (+/−)-4-Oxo-2-[2-(4-oxo-1,2,3-benzotriazin-3(4H)-yl)ethyl]-4-[6-(2-phenylethoxy)-1,2-benzoxazol-3-yl]butanoic acid]
0.71	25.5	63.7	25000	1500	O=C(CC(CCn1nnc2ccccc2c1=O)C(=O)O)c1noc2cc(OCc3ccccc3)ccc12 (racemic) [Example 145, (+/−)-4-[6-(Benzyloxy)-1,2-benzoxazol-3-yl]-4-oxo-2-[2-(4-oxo-1,2,3-benzotriazin-3(4H)-yl)ethyl]butanoic acid]
0.75	20.3	70.9	13000	2300	O=C(CC(CCn1nnc2ccc(C(F)(F)F)cc2c1=O)C(=O)O)c1noc2cc(OCc3ccccc3)ccc12 (racemic) [Example 154, (+/−)-4-[6-(Benzyloxy)-1,2-benzoxazol-3-yl]-4-oxo-2-{2-[4-oxo-6-(trifluoromethyl)-1,2,3-benzotriazin-3(4H)-yl]ethyl}butanoic acid]
0.39	20.2	71.1	30000	2700	O=C(CC(CCn1nnc2ccc(C(F)(F)F)cc2c1=O)C(=O)O)c1noc2cc(OCC3CCOCC3)ccc12 (racemic) [Example 155, (+/−)-4-Oxo-2-{2-[4-oxo-6-(trifluoromethyl)-1,2,3-benzotriazin-3(4H)-yl]ethyl}-4-[6-(tetrahydro-2H-pyran-4-ylmethoxy)-1,2-benzoxazol-3-yl]butanoic acid]
0.089	–	–	> 40000	1300	O=C(CC(CCn1nnc2ccccc2c1=O)C(=O)O)c1coc2cc(OCC3CCCCC3)ccc12 (single isomer, unassigned; (+)) [Example 82, (+)-4-[6-(Cyclohexylmethoxy)-1-benzofur-3-yl]-4-oxo-2-[2-(4-oxo-1,2,3-benzotriazin-3(4H)-yl)ethyl]butanoic acid]
0.18	–	–	> 40000	140	CCCCCCOc1ccc2c(C(=O)CC(CCn3nnc4ccccc4c3=O)C(=O)O)coc2c1 (single isomer, unassigned; (+)) [Example 100, (+)-4-[6-(Hexyloxy)-1-benzofur-3-yl]-4-oxo-2-[2-(4-oxo-1,2,3-benzotriazin-3(4H)-yl)ethyl]butanoic acid]
2.2	33.2	52.5	37000	1300	O=C(CC(CCn1nnc2ccccc2c1=O)C(=O)O)c1cc2ccc(OCC3CC3)cc2s1 (single isomer, unassigned; (+)) [Example 112, (+)-4-[6-(Cyclopropylmethoxy)-1-benzothiophen-2-yl]-4-oxo-2-[2-(4-oxo-1,2,3-benzotriazin-3(4H)-yl)ethyl]butanoic acid]
0.16	22.7	67.5	36000	1500	O=C(C[C@H](CCn1nnc2ccccc2c1=O)C(=O)O)c1noc2cc(OCC3CCOCC3)ccc12 (single isomer, unassigned; enantiomer 2) [Example 135]
0.063	10.8	84.5	3000	660	O=C(O)[C@@H]1[C@@H](Cn2nnc3ccc(C(F)(F)F)cc3c2=O)CC[C@H]1C(=O)c1cc2cc(OCCc3ccccc3)ccc2o1 (single isomer, unassigned; enantiomer 2) [Example 159, (+)-(1RS,2SR,5RS)-2-{[4-Oxo-6-(trifluoromethyl)-1,2,3-benzotriazin-3(4H)-yl]methyl}-5-{[5-(2-phenylethoxy)-1-benzofur-2-yl]carbonyl}cyclopentanecarboxylic acid (enantiomer 2)]

SMILES	IC50 [1] [nM]	CLblood (calculated blood clearance, well-stirred) [2] [mL/min/kg]	Fmax (maximum possible bioavailability after oral administration, well-stirred) [2] [%]	IC50 [3] [nM]	IC50 [4] [nM]
O=C(CC(CCn1nnc2ccccc2c1=O)C(=O)O)c1cc2cc(OCCCC(F)(F)F)ccc2o1 (single isomer, unassigned; enantiomer 2) [Example 13, (+)-4-Oxo-2-[2-(4-oxo-1,2,3-benzotriazin-3(4H)-yl)ethyl]-4-[5-(4,4,4-trifluorobutoxy)-1-benzofur-2-yl]butanoic acid (enantiomer 2)]	6.1	–	–	> 40000	4600

Source: patent US20170121315A1, “HETEROBICYCLICALLY SUBSTITUTED 4-OXOBUTANE ACID DERIVATIVES AND USE THEREOF” (priority 2014, published 2017)
